Experiments:
[1] = tested on: patient with acetylcholine receptor antibody positive myasthenia gravis; test: Treatment of a person suffering from myasthenia gravis with cladribine (single patient; clinical rating scales and tolerability); type: in vivo, human
Description: A patient with existing, acetylcholine receptor antibody positive myasthenia gravis (MG) diagnosed.
They received 20 mg cladribine, administered by subcutaneous injection of 2.5 mg cladribine in 2.5 ml in each of four limbs (total 10 mg), on each of two consecutive days. This total dose of 20 mg is markedly less than the total doses of 200-400 mg given in recent multiple sclerosis trials. Clinical assessment using two scales was performed one week before initiation of cladribine administration, and three months after first cladribine administration. The treatment with oral steroids and pyridostigmine remained stable over observation period.
The two scales used were:
• Myasthenia Gravis Composite Scale (Burns T et al. Neurology 74:1434-40 (2010) • Myasthenia Gravis Activities of Daily Living (Wolfe G et al. Neurology 52: 1487-89 (1999)

[2] = tested on: multiple sclerosis (MS) patients; conditions: 3.5 mg/kg and 5.25 mg/kg by oral tablets; cited from earlier work
[3] = tested on: patient with IgM associated inflammatory peripheral neuropathy; conditions: intravenous, approximately 100 mg cumulative dose; cited from earlier work
[4] = target: A2A (adenosine receptor class 2a) (Homo sapiens, UniProt P29274); conditions: cited from earlier work
human lymphocytes = conditions: phosphorylation by CK blocked, lymphocyte death does not occur; cited from earlier work
[5] = 3 months post vs pre-cladribine

Chain of A2A (adenosine receptor class 2a) (P29274 whole entry): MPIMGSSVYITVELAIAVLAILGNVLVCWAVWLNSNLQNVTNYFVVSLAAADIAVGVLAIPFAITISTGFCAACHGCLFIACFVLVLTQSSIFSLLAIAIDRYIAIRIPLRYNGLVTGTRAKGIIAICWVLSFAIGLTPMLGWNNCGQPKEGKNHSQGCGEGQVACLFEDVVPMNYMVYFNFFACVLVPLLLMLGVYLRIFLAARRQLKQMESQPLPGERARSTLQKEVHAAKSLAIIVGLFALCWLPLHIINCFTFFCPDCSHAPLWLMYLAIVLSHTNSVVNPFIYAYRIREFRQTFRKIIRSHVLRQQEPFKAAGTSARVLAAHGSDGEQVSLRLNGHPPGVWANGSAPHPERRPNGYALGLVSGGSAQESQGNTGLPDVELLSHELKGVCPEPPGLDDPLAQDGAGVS

| SMILES | Tolerability of prior azathioprine treatment ([1]; same MG patient, before cladribine, stopped after 1 week of treatment) | Clinical outcome in MS (relapses, disability, MRI disease activity) [2] | Clinical outcome in IgM associated inflammatory peripheral neuropathy [3] | Affinity at A2A receptors [4] | Induced cytokine production (human lymphocytes) | MG Composite Scale score, 3 months post-cladribine ([1]; 20 mg total s.c. (10 mg on each of two consecutive days), 3 months after first administration, pre-cladribine score 31) | MG Activities of Daily Living score, 3 months post-cladribine ([1]; 20 mg total s.c., 3 months after first administration, pre-cladribine score 19) | Adverse events considered possible side effects of cladribine ([1]; 20 mg total s.c., MG patient) | Transient worsening of signs after treatment initiation ([1]; 20 mg total s.c., MG patient) | Improvement on the MG Activities of Daily Living scale [1, 5] [point] | Improvement on the MG Composite Scale [1, 5] [point] | Durability of clinical improvement after the 3 month assessment ([1]; MG patient, led to gradual withdrawal of baseline treatment) | Period of beneficial effects on the disease without frequent retreatment ([1]; after a short period of treatment) |
| --- | --- | --- | --- | --- | --- | --- | --- | --- | --- | --- | --- | --- | --- |
| Cn1cnc([N+](=O)[O-])c1Sc1ncnc2nc[nH]c12 [azathioprine] | severe intolerance due to nausea and vomiting |  |  |  |  |  |  |  |  |  |  |  |  |
| Nc1nc(Cl)nc2c1ncn2[C@H]1C[C@H](O)[C@@H](CO)O1 [cladribine, 2-chloro-2′-deoxyadenosine] |  | fewer relapses, less disability, and less disease activity | symptomatic improvement and reduced levels of pathogenic antibodies | high affinity | decreased | 6 | 8 | did not experience any adverse events | did not produce a transient worsening of signs | 11 | 25 | sustained over the following seven months | over 10 months |
